{"source": "patent US20050131739A1", "about": "“Methods for monitoring severity of panic attacks and other rapidly evolving medical events in real time” (Alexza Molecular Delivery Corporation, priority 2003, published 2005)", "tested_on": "acute panic attacks in patients with panic disorder", "assay": "Double-blind, randomized, placebo-controlled clinical trial of alprazolam delivered by inhalation; panic recorded with patient experience diary (PED)", "assay_type": "in vivo", "details": "for mean peak panic severity / mean panic severity at 12 minutes: 11-point visual analogue scale; for mean panic severity at 12 minutes: 12 minutes following use of the inhaler", "experimental": "To determine the efficacy of alprazolam delivered by inhalation in the treatment of acute panic attacks, a clinical trial is conducted. The objectives of the trial are to determine the effectiveness of alprazolam delivered by inhalation at the time of onset of panic symptoms in decreasing the duration and/or severity of acute panic attacks in patients with panic disorder. The duration and severity of acute panic symptoms are measured using a patient experience diary (PED) for the real time assessment of severity of panic attacks. Patients are recruited for the study by posting in various public locations and medical clinics advertisements seeking patients who experience 2 or more panic attacks per week for participation in the study. To enroll patients who have not previously been treated for panic, the advertisement may include a description of panic symptoms, so that patients who experience panic attacks without being aware that such attacks constitute a medical condition are encouraged to volunteer.\nThe overall study design is a double-blind, randomized, placebo-controlled clinical trial. Patients 18-65 years of age reporting at least 2 panic attacks per week, without history of psychotic disorders, substance abuse disorders, dementia, or severe or life-threatening medical disorders such as serious heart or lung disease, eligible for the study. Patients not currently on medication for panic disorder, as well as patients currently using a stable dose of selective serotonin reuptake inhibitor (SSRI) the treatment of panic disorder are eligible for the study, as are patients currently taking alprazolam or other benzodiazepines on a PRN basis, if the patients agree not to use such drugs during the study period. Patients using chronic benzodiazepines or other sedative hypnotics for the treatment of panic disorder are excluded from the study, as are patients using psychotropic medications other than SSRIs or unstable SSRI doses. Eligible patients are enrolled in the study after being explained the risks and benefits of the study and signing informed consent.\nThe patients are then trained in use of the PED described in Examples 1 and 2 above, set to an every 3 minute prompting interval. After being trained in use of the PED, the patients then take the PED home for 3 weeks of use. During these 3 weeks, patients must record at least one panic attack per week in the diary of duration greater than 12 minutes (time from initial diary entry until the patient answers “not at all” to the item regarding the severity of their panic symptoms right now) to proceed to the randomization point in the study. Patients recording less than one panic attack per week, only very brief (less than 12 minute duration panic attacks), or having difficulty using the diary are dropped from the study. At this point, continuing patients are randomized to receive placebo inhaler, inhaler dispensing alprazolam 0.25 mg as an aerosol having an approximately 2 μm mass median aerodynamic diameter (MMAD), or inhaler dispensing alprazolam 0.5 mg as an aerosol having an approximately 2 μm MMAD. Patients are given four identical inhalers each, and instructed to use the inhalers at the time of their next 4 panic attacks (only 1 inhaler per attack). In particular, the patients are instructed to start the PED at the initiation of panic symptoms before taking their medication, to take the medication when prompted by the PED, and then to record the course of the panic attack after taking the medication as prompted by the PED.\nData from the 4 panic attacks during which the inhaler is used as panic treatment are recorded in the PED and transmitted to a central data storage site. The data is analyzed after each patient records 4 panic attacks, or after 8 weeks passes from the time the patient received the inhalers. […]"}
{"smiles": "Cc1nnc2n1-c1ccc(Cl)cc1C(c1ccccc1)=NC2", "note": "[alprazolam, 8-chloro-1-methyl-6-phenyl-4H-[1,2,4]triazolo[4,3-α] [1,4]benzodiazepine]", "values": [{"measurement": "mean peak panic severity", "setting": "alprazolam 0.25 mg by inhaler", "result": 6}, {"measurement": "mean panic severity at 12 minutes", "setting": "alprazolam 0.25 mg by inhaler", "result": "3 out of 10"}, {"measurement": "mean peak panic severity", "setting": "alprazolam 0.5 mg by inhaler", "result": 6}, {"measurement": "mean panic severity at 12 minutes", "setting": "alprazolam 0.5 mg by inhaler", "result": "1.5 out of 10"}, {"measurement": "mean duration of panic", "setting": "patients receiving alprazolam 0.25 mg by inhaler (aerosol, approx. 2 μm MMAD) at onset of panic attack", "result": 20, "unit": "min"}, {"measurement": "mean duration of panic", "setting": "patients receiving alprazolam 0.5 mg by inhaler (aerosol, approx. 2 μm MMAD) at onset of panic attack", "result": 10, "unit": "min"}]}
